Test results as given in ChEMBL document CHEMBL1155627, “HIV-Inhibitory prenylated xanthones and flavones from Maclura tinctoria” (J Nat Prod, 2000).
In brackets after ≈: the same amount, converted by molar mass. Activity calls are given as the source filed them. The calls are words filed in the database; no cut-off is given here.

Assays:
[1] = tested on: CEM-SS; assay: Cytotoxicity against human CEM-SS cells; type: cell-based
[2] = tested on: Human immunodeficiency virus 1; assay: Antiviral activity against HIV1; type: functional, organism-based

Row | EC50 [2] | SMILES | IC50 [1] | Activity [2]
1 | 7.5 µg/mL (≈ 17.8 µM) | CC(C)=CCc1c(O)cc2oc3c(c(=O)c2c1O)C(C=C(C)C)Oc1cc(O)ccc1-3 (centres undefined) [ISOCYCLOMULBERRIN] | 17 µg/mL (≈ 40.4 µM) | 
2 |  | CC(C)=CCc1c(-c2ccc(O)cc2O)oc2cc3c(c(O)c2c1=O)CCC(C)(C)O3 [DIHYDROCUDRAFLAVONE B] | 12 µg/mL (≈ 28.4 µM) | inactive
3 | 1 µg/mL (≈ 2.52 µM) | C=CC(C)(C)c1c(O)c(CC=C(C)C)c2oc3cc(O)c(O)cc3c(=O)c2c1O [MACLURAXANTHONE B] | 2.2 µg/mL (≈ 5.55 µM) | 
4 |  | CC(C)=CCc1c(O)c(CC=C(C)C)c2oc3c(O)ccc(O)c3c(=O)c2c1O [GARTANIN] | 5.3 µg/mL (≈ 13.4 µM) | inactive
5 |  | CC(C)=CCc1c(O)c(CC=C(C)C)c2oc3c(O)cccc3c(=O)c2c1O [8-DEOXYGARTANIN] | 4.9 µg/mL (≈ 12.9 µM) | inactive
6 |  | CC(C)=CCc1c(O)cc2oc(-c3ccc(O)cc3O)c(CC=C(C)C)c(=O)c2c1O [CUDRAFLAVONE C] | 5 µg/mL (≈ 11.8 µM) | inactive
7 | 1.3 µg/mL (≈ 3.28 µM) | C=CC(C)(C)c1c(O)c(CC=C(C)C)c2oc3c(O)c(O)ccc3c(=O)c2c1O [MACLURAXANTHONE C] | 3.7 µg/mL (≈ 9.33 µM) | 
